From PubChem BioAssay (NCI)
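Tested at 5 concentrations; 48 h exposure; 96-well plates; endpoints linearly interpolated, else capped at highest concentration. GI50: concentration for 50% inhibition of growth. TGI marks complete inhibition of growth.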

Legend:
Assay in all cases: NCI anticancer screen, dose series, 48 h
[1] = system: 786-0 renal
[2] = system: BT-549 breast
[3] = system: CAKI-1 renal
[4] = system: HCC-2998 colon
[5] = system: HL-60(TB) leukemia
[6] = system: MDA-MB-435
[7] = system: NCI-H23 lung
[8] = system: SF-268 CNS
[9] = system: SW-620 colon
[10] = system: UACC-257 melanoma

## O=C(c1ccc2ncc(-c3nc(NC4CC4)ncc3F)n2c1)N1CCOCC1
[1]
  GI50: 3.06 µM
  TGI: 27.5 µM
[2]
  GI50: 1.58 µM
  TGI: 5.29 µM
[3]
  GI50: 1.33 µM
  TGI: 62.8 µM
[4]
  GI50: 3.01 µM
  TGI: 8.99 µM
[5]
  GI50: 1.97 µM
  TGI: 5.15 µM
[6]
  GI50: 3.11 µM
  TGI: 14.4 µM
[7]
  GI50: 2.58 µM
  TGI: 9.68 µM
[8]
  GI50: 2.53 µM
  TGI: 7.12 µM
[9]
  GI50: 2.91 µM
  TGI: > 100 µM
[10]
  GI50: 2.71 µM
  TGI: 8.43 µM

## C[C@]1(CO)[C@H]2CC[C@@]34C=C[C@@](CO)(CC[C@H]3[C@]2(C)CC[C@H]1O)C4
[1]
  TGI: > 100 µM
[2]
  TGI: > 100 µM
[3]
  TGI: > 100 µM
[4]
  TGI: > 100 µM
[5]
  TGI: > 100 µM
[6]
  TGI: > 100 µM
[7]
  TGI: > 100 µM
[8]
  TGI: > 100 µM
[9]
  TGI: > 100 µM
[10]
  TGI: > 100 µM

## COc1ccc(/C=C/c2nc(NCCCN(C)C)c3ccccc3n2)cc1
[1]
  GI50: 13.3 µM
  TGI: 26.7 µM
[2]
  GI50: 1.55 µM
  TGI: 5.01 µM
[3]
  GI50: 16.5 µM
  TGI: 33.7 µM
[4]
  GI50: 13.8 µM
  TGI: 27.6 µM
[5]
  GI50: 1.71 µM
  TGI: 3.86 µM
[6]
  GI50: 1.81 µM
  TGI: 3.65 µM
[7]
  GI50: 5.43 µM
  TGI: 11.5 µM
[8]
  GI50: 1.86 µM
  TGI: 4.17 µM
[9]
  GI50: 1.67 µM
  TGI: 3.49 µM
[10]
  GI50: 1.87 µM
  TGI: 3.65 µM

## COc1ccc(-c2cc(/C=C3\C(=O)Nc4ccc(Cl)cc43)[nH]n2)cc1
[1]
  GI50: 5.28 µM
  TGI: 17.4 µM
[2]
  GI50: 6.85 µM
  TGI: 19.3 µM
[3]
  GI50: 3.31 µM
  TGI: 13.8 µM
[4]
  GI50: 9.4 µM
  TGI: 24.2 µM
[5]
  GI50: 3.04 µM
  TGI: 10.4 µM
[6]
  GI50: 1.86 µM
  TGI: 4.47 µM
[7]
  GI50: 3.73 µM
  TGI: 16.3 µM
[8]
  GI50: 6.48 µM
  TGI: 19.1 µM
[9]
  GI50: 4.01 µM
  TGI: 15.5 µM
[10]
  GI50: 8.78 µM
  TGI: 21.4 µM

## COc1cc(/C=C\[N+](=O)[O-])ccc1OCc1ccccc1
[1]
  GI50: 1.84 µM
  TGI: 3.74 µM
[2]
  GI50: 1.58 µM
  TGI: 3.3 µM
[3]
  GI50: 3.05 µM
  TGI: 13.2 µM
[4]
  GI50: 1.86 µM
  TGI: 3.63 µM
[5]
  GI50: 2.48 µM
  TGI: 6.16 µM
[6]
  GI50: 2.37 µM
  TGI: 10.3 µM
[7]
  GI50: 2.07 µM
  TGI: 5.26 µM
[8]
  GI50: 2.83 µM
  TGI: 11.5 µM
[9]
  GI50: 1.49 µM
  TGI: 4.02 µM
[10]
  GI50: 2.08 µM
  TGI: 5.83 µM

## CCCCCCCCCCN(CCCCCCCCCC)CC(=O)c1ccc2cc(Br)c3ccccc3c2c1
[1]
  GI50: 1.81 µM
  TGI: 3.39 µM
[2]
  GI50: 10.9 µM
  TGI: 23.6 µM
[3]
  GI50: 1.7 µM
  TGI: 4.43 µM
[4]
  GI50: 1.73 µM
  TGI: 3.16 µM
[5]
  GI50: 2.01 µM
  TGI: 4.22 µM
[6]
  GI50: 1.76 µM
  TGI: 3.42 µM
[7]
  GI50: 1.78 µM
  TGI: 3.4 µM
[8]
  GI50: 3.07 µM
  TGI: 9.47 µM
[9]
  GI50: 1.87 µM
  TGI: 3.75 µM
[10]
  GI50: 2.11 µM
  TGI: 4.4 µM

## Cc1nc2ccc(Nc3nc(NCCN4CCOCC4)nc(Nc4ccc(F)cc4)n3)cc2n1Cc1ccccc1
[1]
  GI50: 1.41 µM
  TGI: 3.04 µM
[2]
  GI50: 2.13 µM
  TGI: 9.33 µM
[3]
  GI50: 2.55 µM
  TGI: 65 µM
[4]
  GI50: 2.74 µM
  TGI: 6.23 µM
[5]
  GI50: 1.82 µM
  TGI: 4.72 µM
[6]
  GI50: 2.23 µM
  TGI: 6.25 µM
[7]
  GI50: 3.67 µM
  TGI: 24.8 µM
[8]
  GI50: 5.82 µM
  TGI: 33.9 µM
[9]
  GI50: 3.24 µM
  TGI: 10.7 µM
[10]
  GI50: 1.74 µM
  TGI: 3.27 µM

## CC[C@@]1(O)C(=O)NCc2c1cc1n(c2=O)Cc2cc3c(N)cccc3nc2-1
[1]
  GI50: 1.37 µM
  TGI: 11.7 µM
[2]
  GI50: 17.8 µM
  TGI: > 100 µM
[3]
  GI50: 0.981 µM
  TGI: 5.51 µM
[4]
  GI50: 2.04 µM
  TGI: 9.24 µM
[5]
  GI50: 1.19 µM
  TGI: > 34.6 µM
[6]
  GI50: 4.8 µM
  TGI: 18.5 µM
[7]
  GI50: 0.942 µM
  TGI: 15.1 µM
[8]
  GI50: 0.558 µM
[9]
  GI50: 4.16 µM
  TGI: > 100 µM
[10]
  GI50: 6.15 µM
  TGI: > 79.5 µM

## Clc1ccc2[nH]cc(-c3nc(-c4c[nH]c5ncccc45)cs3)c2c1
[1]
  GI50: 2.34 µM
  TGI: 5.89 µM
[2]
  GI50: 4.85 µM
  TGI: 17.1 µM
[3]
  GI50: 1.73 µM
  TGI: 11.2 µM
[4]
  GI50: 4.63 µM
  TGI: 21.8 µM
[5]
  GI50: 2.89 µM
  TGI: 45.6 µM
[6]
  GI50: 3.44 µM
  TGI: 14.8 µM
[7]
  GI50: 3.34 µM
  TGI: 20.5 µM
[8]
  GI50: 5.06 µM
  TGI: 32.4 µM
[9]
  GI50: 3.08 µM
  TGI: 11.6 µM
[10]
  GI50: 2.56 µM
  TGI: 6.78 µM

## COc1ccccc1NC(=O)n1nc(N)c2ccccc21
[1]
  GI50: > 84 µM
  TGI: > 100 µM
[2]
  GI50: 39.3 µM
  TGI: > 100 µM
[3]
  GI50: > 100 µM
  TGI: > 100 µM
[4]
  GI50: > 81.4 µM
  TGI: > 100 µM
[5]
  GI50: 55 µM
  TGI: > 100 µM
[6]
  GI50: > 100 µM
  TGI: > 100 µM
[7]
  GI50: > 100 µM
  TGI: > 100 µM
[8]
  GI50: > 48.1 µM
  TGI: > 100 µM
[9]
  GI50: > 100 µM
  TGI: > 100 µM
[10]
  GI50: > 100 µM
  TGI: > 100 µM

## CC1=C[C@H]2c3c(c(O)c(O)c4oc5ccccc5c(=O)c34)[C@H](c3cc(O)c(O)c4oc5ccccc5c(=O)c34)[C@H]2C(C)(C)C1
[1]
  GI50: 1.99 µM
  TGI: 6.24 µM
[2]
  GI50: 1.92 µM
  TGI: 6.69 µM
[3]
  GI50: 0.675 µM
  TGI: 8.34 µM
[4]
  GI50: 1.87 µM
  TGI: 6.03 µM
[5]
  GI50: 3.22 µM
  TGI: 10.8 µM
[6]
  GI50: 0.839 µM
  TGI: 4.42 µM
[7]
  GI50: 0.518 µM
  TGI: 3.22 µM
[8]
  GI50: 1.14 µM
  TGI: 16.4 µM
[9]
  GI50: 0.802 µM
  TGI: 10.7 µM
[10]
  GI50: 2.65 µM
  TGI: 18.1 µM

## CCOc1cc2c(NCCCN(CCO)CCO)ncnc2c(OCC)c1OCC
[1]
  TGI: > 100 µM
[2]
  TGI: > 100 µM
[3]
  TGI: > 100 µM
[4]
  TGI: > 100 µM
[5]
  TGI: > 100 µM
[6]
  TGI: > 100 µM
[7]
  TGI: > 100 µM
[8]
  TGI: > 100 µM
[9]
  TGI: > 100 µM
[10]
  TGI: > 100 µM

## N=C(N=C(N)N)N1CCN(c2ccncc2)CC1
[1]
  GI50: > 1000 µM
  TGI: > 1000 µM
[2]
  GI50: > 1000 µM
  TGI: > 1000 µM
[3]
  GI50: > 1000 µM
  TGI: > 1000 µM
[4]
  GI50: > 1000 µM
  TGI: > 1000 µM
[5]
  GI50: > 1000 µM
  TGI: > 1000 µM
[6]
  GI50: > 1000 µM
  TGI: > 1000 µM
[7]
  GI50: > 1000 µM
  TGI: > 1000 µM
[8]
  GI50: > 1000 µM
  TGI: > 1000 µM
[9]
  GI50: > 1000 µM
  TGI: > 1000 µM
[10]
  GI50: > 1000 µM
  TGI: > 1000 µM

## O=C(NCCCNc1cc(-c2cn(-c3ccccc3)nc2-c2cccc(O)c2)ccn1)c1ccccc1
[1]
  GI50: 2.04 µM
  TGI: 4.69 µM
[2]
  GI50: 2.72 µM
  TGI: 9.47 µM
[3]
  GI50: 2.48 µM
  TGI: 15.3 µM
[4]
  GI50: 1.92 µM
  TGI: 3.69 µM
[5]
  GI50: 1.68 µM
  TGI: 4.19 µM
[6]
  GI50: 1.87 µM
  TGI: 4.75 µM
[7]
  GI50: 3.04 µM
  TGI: 26.6 µM
[8]
  GI50: 3.74 µM
  TGI: > 100 µM
[9]
  GI50: 2.36 µM
  TGI: 6.15 µM
[10]
  GI50: 2.07 µM
  TGI: 4.4 µM

## O=C1C=C(Br)C(=O)C12CCc1ccccc12 (centres undefined)
[1]
  TGI: 42.3 µM
[2]
  TGI: 34.2 µM
[3]
  TGI: 16.3 µM
[4]
  TGI: 40.2 µM
[5]
  TGI: 25.2 µM
[6]
  TGI: 31.8 µM
[7]
  TGI: 44.6 µM
[8]
  TGI: 58.7 µM
[9]
  TGI: 16.2 µM
[10]
  TGI: 41.3 µM
